In patent US7772237B2, “Thio-substituted tricyclic and bicyclic aromatic methanesulfinyl derivatives” (Cephalon France, priority 2004, dated 2010):

Test system: male Wistar rats
Assay: Evaluation of wake promoting activity in rats (EEG/EMG sleep/wake scoring)
Type: in vivo, rat
Conditions: i.p., 100 mg/kg, p<0.05 vs control groups
Description: Biological Data Methodology: Evaluation of Wake Promoting Activity in Rats
The methodology utilized for evaluating wake promoting activity of test compounds is based on that described by Edgar and Seidel, Journal of Pharmacology and Experimental Therapeutics, 283:757-769, 1997, and incorporated herein in its entirety by reference.
Animal Surgery. Adult, male Wistar rats (275-320 g from Charles River Laboratories, Wilmington, Mass.) were anesthetized (Nembutal, 45 mg/kg, ip.) and surgically prepared with implants for recording of chronic EEG (encephalographic) and EMG (electromyographic) recording. The EEG implants were made from commercially available components (Plastics One, Roanoke, Va.). EEG signals were recorded from stainless steel screw electrodes: 2 frontal (+3.0 mm AP from bregma, ±2.0 mm ML), and 2 occipital (−4.0 mm AP from bregma, ±2.0 mm ML). Two Teflon-coated stainless steel wires were positioned under the nuchal trapezoid muscles for EMG recording. […]
Data acquisition. […] On the day of dosing, data was recorded for 6 to 10 hours beginning at 11 AM.
(i) Drug administration and study design. Compounds were evaluated on groups of from 4 to 8 rats carried out over one or two separate test sessions. […]
Sleep/wake scoring. Sleep and wake activity were determined manually using ICELUS software. […]

CC(C)(C)OC(=O)N1CCN(C(=O)CSCc2ccc3oc4ccc(F)cc4c3c2)CC1 [Example 26, 4-[2-(8-fluorodibenzofuran-2-yl-methylsulfanyl)acetyl]-piperazine-1-carboxylic acid tert-butyl ester]
wakefulness compared to vehicle-treated animals: significantly greated wakefulness
